In brackets after ≈: the same amount, converted by molar mass.
How the values were obtained:
Ureaplasma species [1] = settings: background statement; cited from earlier work
[2] = system: Ureaplasma isolate 763T-2; assay: conventional broth-dilution assay, MIC against Ureaplasma isolate 763T-2; format: cell-based
Excerpt: (§1) For example, in the conventional broth-dilution assay, OMT had minimal inhibitory concentrations (MIC's) against four isolates of Ureaplasma as shown in Table I.

[3] = system: Ureaplasma isolate 765T-3; assay: conventional broth-dilution assay, MIC against Ureaplasma isolate 765T-3; format: cell-based
Excerpt: as §1

[4] = system: Ureaplasma isolate 773T-2; assay: conventional broth-dilution assay, MIC against Ureaplasma isolate 773T-2; format: cell-based
Excerpt: as §1

[5] = system: Ureaplasma isolate 779T-3; assay: conventional broth-dilution assay, MIC against Ureaplasma isolate 779T-3; format: cell-based
Excerpt: as §1

[6] = Treatment of naturally occurring pneumonia in calves with OMT (Example 1); format: in vivo; settings: for temperature averages of the calves: controls remained above 40° C. for 10 days; for calves that died: six of ten placebo-treated died
Procedure: Example one illustrates the useful in vivo activity of OMT against Ureaplasma. In the example OMT (free base) was administered in an aqueous propylene glycol solution, and non-medicated water and feed were provided to the animals ad libitum.
(§2) OMT was evaluated in calves for the treatment of naturally occurring pneumonia. Calves were purchased and transported to Lilly Research Laboratories, Greenfield, Indiana. The calves were weighed, bled, identified with eartags and allotted into pens soon after arrival. Rectal temperatures were taken and clinical observations were made daily.
(§3) Calves were put on test at the first signs of respiratory disease which included ocular and nasal discharges, pyrexia and/or depression.
(§4) Treated calves were injected intramuscularly with OMT in an aqueous propylene glycol vehicle. The treatment doses evaluated were 12.5 mg/kg and 25 mg/kg once a day for five days. Control calves were treated with placebo. There were 10 calves per group. Calves that died were examined at necropsy for lesions indicative of pneumomia. Surviving calves were killed seven days after the last treatment and examined for lesions at necropsy.

Ureaplasma species [7] = assay: Treatment of pneumonia in calves (Example 1): isolation of Ureaplasma from lung tissue; format: in vivo
Procedure: as §2, §3, §4

Pasteurella species = assay: Treatment of pneumonia in calves (Example 1): control of Pasteurella; format: in vivo
Procedure: as §2, §3, §4

[8] = Prevention of naturally occurring pneumonia in calves with OMT (Example 2); format: in vivo; settings: for cumulative mortality: 19 calves per group
Procedure: OMT was evaluated in calves for the prevention and control of naturally occurring pneumonia. Calves were purchased and transported to Lilly Research Laboratories, Greenfield, Ind. Soon after arrival the calves were weighed, bled, identified with eartags and allotted into pens. There were 19 calves in the OMT-treated group and 19 calves in the nontreated control group.
OMT was prepared as an injectable in an aqueous propylene glycol vehicle. The treated calves were each injected subcutaneously with 35 mg/lb (77 mg/kg) of OMT within a day after arrival. At this dose and route of administration, the drug was expected, based on blood level studies, to persist for seven days in the treated calves. The calves were each retreated with the same dose seven days later. Rectal temperatures were taken and clinical observations were made daily. Calves that died were examined at necropsy for lesions indicative of pneumonia.

gram-positive bacteria = settings: taught by U.S. Pat. No. 3,459,853; cited from earlier work
[9] = 12.5 mg/kg intramuscular once a day for five days
[10] = 25 mg/kg intramuscular once a day for five days
[11] = 77 mg/kg subcutaneous, repeated after seven days, 14-day observation

CCC[C@@H]1C[C@@H](C(=O)N[C@@H]([C@H]2O[C@H](SC)[C@H](O)[C@@H](O)[C@H]2O)[C@@H](C)O)N(C)C1 [lincomycin]
resistance of Ureaplasma species (Ureaplasma species [1]): resistant

CCC1OC(=O)CC(O)C(C)C(OC2OC(C)C(O)C(N(C)C)C2O)C(CC=O)CC(C)C(=O)C=CC(C)=CC1CO (stereo not drawn) [OMT, 5-O-mycaminosyl tylonolide]
MIC [2]: 0.78 µg/mL (≈ 1.3 µM)
MIC [3]: 1.56 µg/mL (≈ 2.61 µM)
MIC [4]: 1.56 µg/mL (≈ 2.61 µM)
MIC [5]: 1.56 µg/mL (≈ 2.61 µM)
Scours [6, 9]: reduced
ocular discharge [6, 9]: reduced
temperature averages of the calves [6, 9]: lowered to normal by the second day of treatment
calves that died [6, 9]: two of ten
Scours [6, 10]: reduced
ocular discharge [6, 10]: reduced
temperature averages of the calves [6, 10]: lowered to normal by the second day of treatment
calves that died [6, 10]: two of ten
Ureaplasma species isolated from lung tissue (Ureaplasma species [7]; 12.5 mg OMT/kg intramuscular once a day for five days, also isolated with placebo): isolated from lung tissue
elimination of the Ureaplasma species from the animals (Ureaplasma species [7]; [10]): eliminated the Ureaplasma species
Ureaplasma species isolated from calves (Ureaplasma species [7]; 25 mg/kg intramuscular once a day for five days, isolated from lung tissue of placebo calves): not isolated
control of Pasteurella species associated with this pneumonia (Pasteurella species; [9]): effectively controlled
control of Pasteurella species associated with this pneumonia (Pasteurella species; [10]): effectively controlled
preventing death of calves due to a severe pneumonia ([8]; 77 mg/kg subcutaneous, repeated after seven days): very effective in preventing death of calves
Scours [8, 11]: less severe
nasal and ocular discharges [8, 11]: less severe
average temperatures ([8]; 77 mg/kg subcutaneous, repeated after seven days, 14-day observation, vs non-medicated controls): lower
alertness and condition of calves ([8]; 77 mg/kg subcutaneous, repeated after seven days, vs controls): more alert and in better condition than the controls
cumulative mortality ([8]; day 1, control 0): 0
cumulative mortality ([8]; day 2, control 0): 0
cumulative mortality ([8]; day 3, control 0): 0
cumulative mortality ([8]; day 4, control 1): 0
cumulative mortality ([8]; day 5, control 3): 0
cumulative mortality ([8]; day 6, control 5): 0
cumulative mortality ([8]; day 7, control 5): 0
cumulative mortality ([8]; day 8, control 5): 0
cumulative mortality ([8]; day 9, control 9): 0
cumulative mortality ([8]; day 10, control 11): 0
cumulative mortality ([8]; day 11, control 13): 0
cumulative mortality ([8]; day 12, control 14): 0
cumulative mortality ([8]; day 13, control 14): 2
cumulative mortality ([8]; day 14, control 15): 3
calves that died with extensive pathologic lesions indicative of severe pneumonia ([8]; necropsy, 14 of the 15 control calves): 3 calves
inhibition of gram-positive bacteria (gram-positive bacteria): inhibited gram-positive bacteria

Source: patent publication US4341770A, “Method of controlling ureaplasma infections” (Eli Lilly and Company, priority 1981, dated 1982)
